Target: T1, horseradish peroxidase (HRP) (Armoracia rusticana, UniProt P00433)
T1 sequence (P00433 31-338 limits assumed): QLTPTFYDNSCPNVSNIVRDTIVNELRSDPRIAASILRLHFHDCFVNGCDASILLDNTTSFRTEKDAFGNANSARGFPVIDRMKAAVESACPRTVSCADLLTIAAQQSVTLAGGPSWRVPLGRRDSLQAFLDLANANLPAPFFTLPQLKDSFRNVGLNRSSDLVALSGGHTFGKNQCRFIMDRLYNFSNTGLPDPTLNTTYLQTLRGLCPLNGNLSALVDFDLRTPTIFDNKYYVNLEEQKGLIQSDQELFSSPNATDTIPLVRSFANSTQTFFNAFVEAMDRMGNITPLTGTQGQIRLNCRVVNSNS
Assay: Chemiluminescent detection of HRP: reaction of compound with peroxidase and peroxide
Assay type: biochemical
Settings: for time to maximum chemiluminescence intensity: 0.01 M tris pH 8.0, 0.5 mM urea peroxide, 0.1 mM p-phenylphenol, 1 mM EDTA, 0.025% Tween 20, 5×10^−5 M acridan, HRP 3.5×10^−16 to 1.4×10^−15 moles
Procedure: FIG. 1 is a graph relating the amount of HRP to the chemiluminescence intensity at 15 min emitted by 100 μL of a reagent described in Example 20 containing acridan phosphate 5 triggered at room temperature. Chemiluminescence emission was initiated by addition of 10 μL of solutions of HRP containing between 1.4×10^−15 and 1.4×10^−19 moles of enzyme to 100 μL of the reagent comprising 0.055 M tris buffer, pH 8.6, 0.25 mM urea peroxide, 0.05 mM p-phenylphenol, 0.5 mM EDTA, 0.0125% Tween 20 and 3.3×10^−4 M acridan 5 in the wells of a black microplate. The term S-B refers to the chemiluminescence signal (S) in Relative Light Units (RLU) in the presence of HRP corrected for background chemiluminescence (B) in the absence of HRP.
FIG. 2 is a graph relating the amount of HRP to the chemiluminescence intensity at 15 min emitted by 100 μL of a reagent described in Example 21 containing acridan phosphate 13 triggered at room temperature. Chemiluminescence emission was initiated by addition of 10 μL of solutions of HRP containing between 1.4×10^−15 and 1.4×10^−19 moles of enzyme to 100 μL of a reagent comprising 0.055 M tris buffer, pH 8.6, 0.25 mM urea peroxide, 0.05 mM p-phenylphenol, 0.5 mM EDTA, 0.0125% Tween 20 and 3.3×10^−4 M acridan 13 in a black microplate.
FIG. 3 is a graph showing the time profile of chemiluminescence resulting from reaction of 1.4×10^−15 moles of HRP at 25° C. with 100 μL of the reagent containing acridan 5 described in Example 20.
(§1) FIG. 4 is a graph relating the amount of HRP to the maximum chemiluminescence intensity at 2 min emitted by 100 μL of a reagent containing acridan 37 triggered at room temperature. Chemiluminescence emission was initiated by addition of 10 μL of solutions of HRP containing between 1.4×10^−14 to 1.4×10^−19 moles to 100 μL of reagent composition comprising 0.01 M tris buffer, pH 8.0, 0.5 mM urea peroxide, 0.1 mM p-phenylphenol, 1 mM EDTA, 0.025% Tween 20 and 5×10^−5 M acridan 37.
FIG. 5 is a graph showing the time profile of chemiluminescence resulting from reaction of 1.4×10^−15 moles of HRP at 25° C. with 40 μL of a reagent comprising 0.01 M tris buffer, pH 8.0, 0.5 mM urea peroxide, 0.1 mM p-phenylphenol, 1 mM EDTA, 0.025% Tween 20 and 5×10^−5 M acridan 38.
as §1, with “FIG. 6” for “FIG. 4”, “at 30” for “at 2”, “acridan 39” for “acridan 37”, “between 1.4×10^−15” for “between 1.4×10^−14”, “to 1.4×10^−20” for “to 1.4×10^−19”, “acridan 39.” for “acridan 37.”
FIG. 7 is a graph showing the time profile of chemiluminescence resulting from reaction of 3.5×10^−16 moles of HRP at 25° C. with 100 μL of a reagent comprising 0.01 M tris buffer, pH 8.0, 0.5 mM urea peroxide, 0.1 mM p-phenylphenol, 1 mM EDTA, 0.025% Tween 20 and 5×10^−5 M acridan 50.
FIG. 8 is a graph relating the amount of HRP to the maximum chemiluminescence intensity at 15 min emitted by 100 μL of a reagent containing acridan 43 triggered at room temperature. Chemiluminescence emission was initiated by addition of 10 μL of solutions of HRP containing between 1.4×10^−15 to 1.4×10^−19 moles to 100 μL of a reagent composition comprising 0.055 M tris buffer, pH 8.6, 0.25 mM urea peroxide, 0.05 mM p-phenylphenol, 0.5 mM EDTA, 0.0125% Tween 20, 1 mM CTAB and 6.6×10^−4 M acridan 43.
Reagent compositions comprising 0.055 M tris buffer, pH 8.6, 0.25 mM urea peroxide, 0.05 mM p-phenylphenol, 0.5 mM EDTA, 0.0125% Tween 20, 1 mM CTAB and 3.3×10^−4 M compound 46 alone or with 50 μM DBA were tested for production of chemiluminescence by reacting a 100 μL aliquot with 3.5×10^−15 moles of HRP. […]

Row | SMILES | production of chemiluminescence on reaction with a peroxidase and a peroxide | time to maximum chemiluminescence intensity | increase of light intensity when CTAB was included in the reaction mixture (reaction with a peroxidase and a peroxide, with vs without CTAB)
1 | CCOP(=O)(OCC)OC(Oc1ccccc1)=C1c2ccccc2N(C)c2ccccc21 [Compound 37] | Light production ensued upon mixing |  | 
2 | CCOP(=O)(OCC)OC(Sc1ccccc1)=C1c2ccccc2N(C)c2ccccc21 [Compound 38] | Light production ensued upon mixing | 1 min | 
3 | CC(=O)OC(Oc1ccccc1)=C1c2ccccc2N(C)c2ccccc21 [Compound 39] | Light production ensued upon mixing | 30 min | 
4 | CC(=O)OC(Sc1ccccc1)=C1c2ccccc2N(C)c2ccccc21 [Compound 40] | Light production ensued upon mixing | 7 min | 

The next lines start with the values.

Row | production of chemiluminescence on reaction with a peroxidase and a peroxide | time to maximum chemiluminescence intensity | increase of light intensity when CTAB was included in the reaction mixture (reaction with a peroxidase and a peroxide, with vs without CTAB) | SMILES
5 |  |  | increased more than ten-fold | C/C(=C(/OP(=O)([O-])[O-])Sc1ccccc1)c1ccc2cc([O-])ccc2c1.[Na+].[Na+].[Na+] [Compound 43]
6 | Light production ensued upon mixing | 7 min |  | COC(Sc1ccccc1)=C1c2ccccc2N(C)c2ccccc21 [Compound 50]

— US6891057B2, “Compounds for generating chemiluminescence with a peroxidase” (Lumigen, Inc., priority 1997, dated 2005)
